Structures can show the parent of a compound that is named as a salt.
Legend:
[1] = M. Kawamura et al., Yakugaku Zasshi, 91, 871 (1971); cited from earlier work
[2] = Estimated t90% (time for 10% hydrolysis) in dilute aqueous solution at 25° C; format: physicochemical; settings: extrapolated from rate constants at pH 2 and 8 (0.01 ionic strength buffers) to the pH at which hydrolysis is a minimum
Method: The solution stability of the compounds of Formula I varies to some extent depending on the nature of X and Y and the values for m and n. Shown in Table I are estimates of t90% (time for 10% hydrolysis) of various derivatives in dilute aqueous solutions at 25° C. These estimates are based on an extrapolation of the rate constants for acid and base catalyzed hydrolysis to the pH at which hydrolysis is a minimum. The rate constants for acid and base catalyzed hydrolysis were determined at pH 2 and 8, respectively, in 0.01 ionic strength buffers.

[3] = Base catalyzed hydrolysis rate in concentrated versus dilute solution; format: physicochemical; settings: 0.11M solution versus 5×10^-4 M solution
From the text: The actual shelf-life of formulations of the above compounds would be expected to differ from the above estimates for two reasons: (1) The solubility of the parent corticosteroid formed on hydrolysis may be exceeded prior to 10% degradation of the ester. Micelle formation by the intact prodrugs of Formula I results in solubilization of free corticosteroid thereby prolonging shelf-life. […]. The degree of solubilization varies with the ester concentration, nature of the pro-moiety, and the structure of the corticosteroid. (2) Micelle formation by the intact prodrug in concentrated solutions results in stabilization of the ester linkage toward base catalyzed hydrolysis. For example, the base catalyzed hydrolysis rate in a 0.11M solution of the compound of Example 1 is less than one-half the rate in a 5×10^-4 M solution.

Row | Structure (SMILES) | activity in mice [1] | Estimated t90% (time for 10% hydrolysis) [2] [years] | base catalyzed hydrolysis rate relative to the rate in dilute solution [3]
1 | C[C@]12CCC(=O)C=C1CC[C@@H]1[C@@H]2[C@@H](O)C[C@@]2(C)[C@H]1CC[C@]2(O)C(=O)COS(=O)(=O)O [21-sulfate of hydrocortisone] | inactive | – | –
2 | C[C@H]1C[C@@H]2[C@H]([C@@H](O)C[C@@]3(C)[C@H]2CC[C@]3(O)C(=O)COC(=O)CCC(=O)N(C)CCS(=O)(=O)O)[C@@]2(C)C=CC(=O)C=C12 [Example 1, N-Methyl taurine amide of methylprednisolone 21-hemisuccinate (Na salt)] | – | 3.9 | less than one-half
3 | C[C@H]1C[C@@H]2[C@H]([C@@H](O)C[C@@]3(C)[C@H]2CC[C@]3(O)C(=O)COC(=O)CCCCCCC(=O)NCCS(=O)(=O)O)[C@@]2(C)C=CC(=O)C=C12 [Example 2, Taurine amide of methylprednisolone 21-suberate (Na salt)] | – | 3.9 | –
4 | C[C@H]1C[C@@H]2[C@H]([C@@H](O)C[C@@]3(C)[C@H]2CC[C@]3(O)C(=O)COC(=O)CCCCCCC(=O)N(C)CCS(=O)(=O)O)[C@@]2(C)C=CC(=O)C=C12 [Example 3, N-Methyltaurine amide of methylprednisolone 21-hemisuberate (Na salt)] | – | 4.1 | –

From patent publication US4472392A, “Sulfonate containing ester prodrugs of corticosteroids” (The Upjohn Company, priority 1983, dated 1984)
